Nine compounds from patent US5420131A, “Cyanomethylpyridine derivatives” (J. Uriach & Cia, S.A., priority 1993, dated 1995) can be followed below.

Experiment [1] relates to platelet aggregation induced by PAF. The experiment is described as follows: Inhibition of platelet aggregation induced by PAF (rabbit platelet rich plasma, Born nephelometric technique). Particulars: Oryctolagus cuniculus, rabbit PRP, 3×10^5 platelets/mm^3, PAF (C18) 15 nM. The format is cell-based, male New Zealand albino rabbits. As for the experimental part:
Inhibition of platelet aggregation induced by PAF.
Blood is obtained by cardiac puncture of male New Zealand albino rabbits (b.w. 2-2.5 Kg) and coagulation is prevented by adding 1 part of 3.16% sodium citrate dihydrate in 9 parts of blood. Platelet rich plasma (PRP) is prepared by centrifuging the blood at 250×g for 10 min. at 4° C. and then it is diluted with platelet poor plasma (PPP) obtained by further centrifuging at 3000×g for 10 min. The platelet count is adjusted to 3×10^5 /mm^3. Platelet aggregation induced by PAF (C18, prepared in our laboratory) (15 nM) is determined by the Born nephelometric technique (J. Physiol., 1962, 162, 67) using an aggregometer Chrono-log 500. The activities of the inhibitors are expressed as the IC50 value, that is to say the concentration of the drug needed to inhibit platelet aggregation by 50%.

The test system of experiment [2] is hypotensive effect induced by PAF in normotense rats. The experiment is described as follows: Inhibition of the hypotensive effect induced by PAF in normotense rats. In kind it is in vivo, male Sprage Dawley rats. Particulars: Rattus norvegicus, iv, 0.05 h; i.v., test compound via femoral vein 3 min. before PAF 0.5 mcg/Kg i.v.; anaesthetized rats; read-out: ID50 (inhibition of PAF-induced hypotension). The protocol:
Inhibition of the hypotensive effect induced by PAF in normotense rats.
Male Sprage Dawley rats (b.w. 180-220 g) anaesthetized with sodium pentobarbital (50 mg/Kg, i.p. 1 mL/100 g) are used. In order to measure the arterial pressure, a polyethylene catheter is introduced into the carotid artery. The arterial pressure is recorded with the help of a transducer coupled to a R611 Beckman polygraph. The test compounds are administered through the femoral vein 3 min. before PAF injection (0.5 mcg/Kg, i.v.). Control animals receive only the vehicle.

Consider `Cc1ncccc1C(C#N)N1CCN(C(=O)CC(NC(=O)c2ccc(OCc3ccc4ccccc4n3)cc2)c2ccccc2)CC1` (stereo not drawn) [Compound 5, 1-[3-[N-[p-(2-quinolylmethoxy)benzoyl]]amino-3-phenylpropionyl]-4-[(2-methyl-3-pyridyl)cyanomethyl]piperazine], for which, in experiment [1], it took 680 nM to reach half-maximal inhibition (IC50). Further, in experiment [2], the ED50 came out at 0.21 mg/kg.

In experiment [1], `Cc1ncccc1C(C#N)N1CCN(C(=O)Cc2ccc(OCc3ccc4ccccc4n3)cc2)CC1` (stereo not drawn) [Compound 1, 1-[p-(2-Quinolylmethoxy)phenylacetyl]-4-[(2-methyl-3-pyridyl)cyanomethyl]piperazine] came in with an IC50 of 6700 nM. Besides, in experiment [2], the ED50 came out at 0.69 mg/kg.

For `N#CC(c1cccnc1)C1CCN(C(=O)[C@H](NC(=O)Cc2ccc(OCc3ccc4ccccc4n3)cc2)c2ccccc2)CC1` (stereo partly drawn) [Compound 10, 1-[N-[p-(2-quinolylmethoxy)phenylacetyl]-D-2-phenylglycinyl]-4-(3-pyridylcyanomethyl)piperidine], half-maximal inhibition in experiment [1] (IC50) was put at 550 nM. The ED50 in experiment [2] stood at 0.12 mg/kg.

`N#CC(c1cccnc1)C1CCN(C(=O)[C@H](NC(=O)c2cccc(OCc3ccc4ccccc4n3)c2)c2ccccc2)CC1` (stereo partly drawn) [Compound 13, 1-[N-[3-(2-quinolylmethoxy)benzoyl]-D-2-phenylglycinyl]-4-(3-pyridylcyanomethyl)piperidine] had an IC50 in experiment [1] of 660 nM. Further, the ED50 in experiment [2] was 0.21 mg/kg.

`Cc1ncccc1C(C#N)N1CCN(C(=O)CNC(c2ccccc2)c2ccc(OCc3ccc4ccccc4n3)cc2)CC1` (stereo not drawn) [Compound 2]: in experiment [1], half-maximal inhibition (IC50) required 1800 nM. Moreover, the ED50 in experiment [2] was 0.057 mg/kg.

As for `Cc1ncccc1C(C#N)N1CCN(C(=O)CC(NC(=O)c2cccc(OCc3ccc4ccccc4n3)c2)c2ccccc2)CC1` (stereo not drawn) [Compound 6, 1-[3-[N-[3-(2-quinolylmethoxy)benzoyl]]amino-3-phenylpropionyl]-4-[(2-methyl-3-pyridyl)cyanomethyl]piperazine], 740 nM corresponded to half-maximal inhibition in experiment [1] (IC50). Further, the ED50 in experiment [2] was 0.16 mg/kg.

Take `Cc1ncccc1C(C#N)N1CCN(C(=O)CC(NC(=O)Cc2ccc(OCc3ccc4ccccc4n3)cc2)c2ccccc2)CC1` (stereo not drawn) [Compound 3, 1-[3-[N-[p-(2-quinolylmethoxy)phenylacetyl]]amino-3-phenylpropionyl]-4-[(2-methyl-3-pyridiyl)cyanomethyl]piperazine]: in experiment [1], 80 nM corresponded to half-maximal inhibition (IC50). Moreover, the ED50 in experiment [2] is 0.036 mg/kg.

In turn, `N#CC(c1cccnc1)C1CCN(C(=O)CC(NC(=O)c2ccc(OCc3ccc4ccccc4n3)cc2)c2ccccc2)CC1` (stereo not drawn) [Compound 7, 1-[3-[N-[p-(2-quinolylmethoxy)benzoyl]]amino-3-phenylpropionyl]-4-(3-pyridylcyanomethyl)piperidine] displayed a half-inhibitory concentration (IC50) in experiment [1] of 55 nM. Also, the ED50 in experiment [2] was determined as 0.25 mg/kg.

Consider `Cc1ncccc1C(C#N)N1CCN(C(=O)CC(NC(=O)Cc2cccc(OCc3ccc4ccccc4n3)c2)c2ccccc2)CC1` (stereo not drawn) [Compound 4, 1-[3-[N-[3-(2-quinolylmethoxy)phenylacetyl]]amino-3-phenylpropionyl]-4-[(2-methyl-3-pyridyl)cyanomethyl]piperazine], for which half-maximal inhibition in experiment [1] (IC50) was put at 12 nM. Also, in experiment [2], the ED50 came out at 0.041 mg/kg.

One may read the IC50 as the concentration at which inhibition is half-maximal. Read a low IC50 as inhibition by little substance.
